Several values for one entry are separate records, joined by “and”; a condition that tells them apart may be missing. Identical values can stand only once. Marks after values point to notes of the source that are not given here.
What was measured:
Format in all cases: in vivo, postmenopausal women
FSH = assay: Serum FSH concentration (immunoradiometric assay), Example 2; conditions: 25 µg E2; Week 12
Procedure: (§1) Maturation values of vaginal mucosal cells were assessed as an indicator of changes in the condition of the vaginal mucosa in response to treatment.
(§2) After the screening visit, patients received no study treatment during the 4-week run-in period prior to the baseline visit. […] The vaginal tablets were identical in appearance. Patients inserted 1 tablet intravaginally, once daily for the initial 2 weeks of the study and then twice per week (Sunday and Thursday) for the remaining 10 weeks. Patients were instructed to use their medication at a consistent time each day, preferably in the morning.
(§3) Upon presentation to the clinic for each visit, a vaginal cytology specimen was obtained. Patients then inserted the tablets. […] The blood samples obtained at 30 minutes before insertion, and at 6, 12, and 24 hours after insertion were also used to determine the FSH concentration via immunoradiometric assay.
Data for area under the curve and maximal concentration were converted to a logarithmic scale, and changes from first dose (at the baseline visit) in the logarithmic values were estimated using 95% confidence intervals derived from paired t-tests. […] Differences within treatment groups in FSH concentration were determined using the Wilcoxon signed rank test based on changes from baseline in mean concentrations at weeks 2 and 12. […]

endometrium = assay: Endometrial biopsy at end of study, Example 3; conditions: Week 12, N = 32
Procedure: (§4) Efficacy was measured with composite scores of vaginal symptoms (dryness, soreness, and irritation) and vaginal health (secretions, epithelial integrity, surface thickness, and pH). Vaginal and urethral cytology analyses were also performed, and the vaginal maturation value was determined. Safety assessments included endometrial biopsies.
(§5) Vaginal and urethral cell samples were harvested and analyzed by independent cytologists to determine the percentages of parabasal, intermediate, and superficial cells. Maturation values were calculated according to the following equation: maturation value = 1.0 × [superficial cells, %] + 0.5 × [intermediate cells, %] [formula] Endometrial biopsies were performed at the end of the study in patients with intact uteri. The number of patients with abnormal biopsies was compared between treatment groups.

[1] = 24-hour serum estradiol profile after vaginal tablet insertion (radioimmunoassay), Example 2; conditions: for patients with areas under the curve below 600 pg hr/mL at both time points / percentage of patients with areas under the curve below 600 pg hr/mL at both time points: weeks 0 and 12; for Maximal concentration / Time to maximal concentration: mean ± SD
Source text: as §2, §3
Data for area under the curve and maximal concentration were converted to a logarithmic scale, and changes from first dose (at the baseline visit) in the logarithmic values were estimated using 95% confidence intervals derived from paired t-tests. […] Differences within treatment groups in FSH concentration were determined using the Wilcoxon signed rank test based on changes from baseline in mean concentrations at weeks 2 and 12. Mean concentrations were defined as the average concentrations obtained at 30 minutes before tablet insertion and 6, 12, and 24 hours after insertion.

[2] = tested on: superficial vaginal cells; assay: Vaginal cytology, percentage of superficial cells, Example 3
Procedure: as §4
(§6) All vaginal tablets were identical in appearance. Patients inserted 1 tablet daily for 14 days. Thereafter, patients inserted 1 tablet twice per week (Sunday and Thursday) for the remainder of the trial. Patients were to insert the tablets at the same time each day (preferably at bedtime). Patients were evaluated for efficacy and safety at Week - 4 (screening), Week 0 (baseline), and Weeks 2, 7, and 12.
as §5

vaginal mucosal cells = assay: Maturation value of vaginal mucosal cells, Example 2
Procedure: as §1, §2
as §3, with “assay. […]” for “assay.”

vaginal mucosa = assay: Vaginal maturation value, Example 3
Procedure: as §4, §6, §5

[3] = 10 µg E2 vaginal tablet, Week 0
[4] = 10 µg E2 vaginal tablet, Week 12
[5] = 25 µg E2 vaginal tablet, Week 0
[6] = 25 µg E2 vaginal tablet, Week 12

Endometrial Biopsy Result Abnormal, percentage of patients (endometrium; 10 µg E2): 0.0%
Endometrial Biopsy Result Normal, number of patients (endometrium; 10 µg E2): 25
Endometrial Biopsy Result Normal, percentage of patients (endometrium; 10 µg E2): 78.1%
Endometrial Biopsy Result Other, number of patients (endometrium; 10 µg E2): 7
Endometrial Biopsy Result Other, percentage of patients (endometrium; 10 µg E2): 21.9%
Endometrial Biopsy Result Abnormal, number of patients (endometrium; 10 µg E2, hyperplasia or carcinoma): 0
Endometrial Biopsy Result Abnormal, percentage of patients (endometrium; 25 µg E2): 3.1%
Endometrial Biopsy Result Normal, number of patients (endometrium; 25 µg E2): 28
Endometrial Biopsy Result Normal, percentage of patients (endometrium; 25 µg E2): 87.5%
Endometrial Biopsy Result Other, number of patients (endometrium; 25 µg E2): 3
Endometrial Biopsy Result Other, percentage of patients (endometrium; 25 µg E2): 9.4%
patients with areas under the curve below 600 pg hr/mL at both time points ([1]; 10 µg E2): 22 patients
percentage of patients with areas under the curve below 600 pg hr/mL at both time points ([1]; 10 µg E2): 96%
Serum concentration over 24 hours [1, 3]: 0.015 ng/mL
Maximal concentration [1, 3]: 35 ± 17 pg/mL
Area under the curve ([1]; 10 µg E2 vaginal tablet, Week 0, serum E2, mean ± SD): 0.349 ± 0.107 ng·h/mL
Serum concentration over 24 hours [1, 4]: 0.011 ng/mL
Maximal concentration [1, 4]: 22 ± 17 pg/mL
Time to maximal concentration [1, 4]: 10 ± 8 h
Area under the curve ([1]; 10 µg E2 vaginal tablet, Week 12, serum E2, mean ± SD): 0.264 ± 0.12 ng·h/mL
patients with areas under the curve below 600 pg hr/mL at both time points ([1]; 25 µg E2): 14 patients
percentage of patients with areas under the curve below 600 pg hr/mL at both time points ([1]; 25 µg E2): 74%
Serum concentration over 24 hours [1, 5]: 0.022 ng/mL
Time to maximal concentration [1, 5]: 15 ± 9 h
Area under the curve ([1]; 25 µg E2 vaginal tablet, Week 0, repeated Table 2): 538000 ± 265000 ng·h/mL
Area under the curve ([1]; 25 µg E2 vaginal tablet, Week 0, serum E2, mean ± SD): 0.538 ± 0.265 ng·h/mL
Serum concentration over 24 hours [1, 6]: 0.023 ng/mL
Time to maximal concentration [1, 6]: 13 ± 6 h
Area under the curve ([1]; 25 µg E2 vaginal tablet, Week 12, serum E2, mean ± SD): 0.563 ± 0.341 ng·h/mL
SMILES: C[C@]12CC[C@@H]3c4ccc(O)cc4CC[C@H]3[C@@H]1CC[C@@H]2O [E2, 17β-estradiol]
patients with mean FSH concentrations below 35 mIU/mL (FSH): 3 patients
percentage of superficial vaginal cells, Mean ([2]; 10 µg E2, Week 0): 3.1%
percentage of superficial vaginal cells, Mean ([2]; 10 µg E2, Week 2): 28.3%
percentage of superficial vaginal cells, mean Change from baseline ([2]; 10 µg E2, Week 2): 25.0^a %
percentage of superficial vaginal cells, mean Change from baseline ([2]; 10 µg E2, Week 7): 17.1%
percentage of superficial vaginal cells, mean Change from baseline ([2]; 10 µg E2, Week 12): 16.9^d %
percentage of superficial vaginal cells, Mean ([2]; 25 µg E2, Week 0): 4.0%
percentage of superficial vaginal cells, Mean ([2]; 25 µg E2, Week 2): 34.2%
percentage of superficial vaginal cells, mean Change from baseline ([2]; 25 µg E2, Week 2): 30.7^a %
percentage of superficial vaginal cells, Mean ([2]; 25 µg E2, Week 7): 28.2%
percentage of superficial vaginal cells, mean Change from baseline ([2]; 25 µg E2, Week 7): 23.9^b,c %
percentage of superficial vaginal cells, mean Change from baseline ([2]; 25 µg E2, Week 12): 15.4%
maturation value, Mean ± SD (vaginal mucosal cells; 10 µg E2, Week 0 (baseline)): 51.0 and 51.0 ± 6.2
maturation value, Mean change ± SD from baseline (vaginal mucosal cells; 10 µg E2, Week 12): 11.2 ± 17.8^b
maturation value, Mean ± SD (vaginal mucosal cells; 10 µg E2, Week 12): 62.2 ± 15.7
patients with increases in maturation values from baseline (vaginal mucosal cells; 10 µg E2, Week 12): 14 patients
percentage of patients with increases in maturation values from baseline (vaginal mucosal cells; 10 µg E2, Week 12): 64%
maturation value, Mean ± SD (vaginal mucosal cells; 25 µg E2, Week 0 (baseline)): 52.4 and 53.4 and 52.4 ± 7.1
maturation value, Mean change ± SD from baseline (vaginal mucosal cells; 25 µg E2, Week 12): 7.0 ± 8.7^b
maturation value, Mean ± SD (vaginal mucosal cells; 25 µg E2, Week 12): 58.4 ± 7.5
patients with increases in maturation values from baseline (vaginal mucosal cells; 25 µg E2, Week 12): 13 patients
percentage of patients with increases in maturation values from baseline (vaginal mucosal cells; 25 µg E2, Week 12): 68%
maturation values (vaginal mucosa; active treatment groups (25 or 10 µg E2), Week 12): approximately 60%
maturation values (vaginal mucosa; each treatment group (25 or 10 µg E2), Week 0): approximately 45%

Reference: patent EP1343508B1, “USE OF AN OESTROGEN IN THE MANUFACTURE OF A COMPOSITION CONTAINING OESTROGEN FOR THE TREATMENT OF ATROPHIC VAGINITIS” (Novo Nordisk Femcare AG, priority 2000, dated 2002)
